For this assay, the system named is autologous cell line LB-831-EBV pulsed with MAGE-A12 peptides, lysis by CTL 501D/19 (HLA-Cw*07 restricted). In words: Chromium release cytotoxicity assay with peptide-pulsed cells. In kind it is cell-based, human. As to conditions: effector to target ratio of 10, chromium release after 4 hours; for sensitization of peptide-pulsed LB-831-EBV cells to lysis by CTL 501D/19 (recognition by CTL): chromium-labeled cells pulsed 30 min with peptide. Here is the method:
The lytic activity of CTLs was tested in a chromium release assay as described previously (Boon et al., J. Exp. Med. 152:1184-1193, 1980). Briefly, 1,000 chromium-labeled cells in 100 μl were incubated in 96-well microplates with an equal volume of CTL at different effector to target ratios. Chromium release was measured after 4 h of incubation. For the peptide assay, labeled LB831-EBV cells were incubated for 30 min at 37° C. with various concentrations of peptides. CTL were then added and chromium release was measured as described above.
Cells transfected with fragments of 540 bp or more were capable of stimulating CTL 501D/19, whereas those transfected with shorter fragments were not. […] In the amino-acid sequence corresponding to nucleotides 525-540, two overlapping nonapeptides, EVVRIGHLY (codons 168-176 of MAGE-A12; SEQ ID NO:3) and VRIGHLYIL (codons 170-178 of MAGE-A12; SEQ ID NO:4) were found which conformed to the HLA-Cw7 peptide binding motif, i.e. tyrosine or leucine at the C terminus (Rammensee et al., Immunogenetics. 41:178, 1995). Decapeptide […] (SEQ ID NO:5), nonapeptide VRIGHLYIL (SEQ ID NO:4) and octapeptide RIGHLYIL (SEQ ID NO:6) sensitized the autologous lymphoblastoid cell line LB-83]-EBV to lysis by CTL 501D/19 (FIG. 4). Autologous cell line LB-831-EBV was loaded with MAGE-A12 peptides VRIGHLYIL (SEQ ID NO:4), VVRIGHLYIL (SEQ ID NO:5), or RIGHLYIL (SEQ ID NO:6), and contacted with CTL 501D/19. Chromium-labeled cells were pulsed for 30 min with the indicated concentrations of peptides (VRIGHLYIL (SEQ ID NO:4) or […] (SEQ ID NO:6)). CTL 501D/19 was added at an effector to target ratio of 10. Chromium release was measured after 4 hours.

As to VRIGHLYIL [SEQ ID NO:4], the “sensitization of peptide-pulsed LB-831-EBV cells to lysis by CTL 501D/19 (recognition by CTL)” value (shortened to “sensitization”) is listed as “sensitized”. In addition, under “LB-831-EBV cells pulsed 30 min, read-out: peptide concentration giving half-maximal lysis by CTL 501D/19”, the EC50 is 0.1 nM.
In the case of VVRIGHLYIL [SEQ ID NO:5], the “sensitization” value was “sensitized”.
Consider “EVVRIGHLY (listed as Homo sapiens) [SEQ ID NO:3, nonapeptide, codons 168-176 of MAGE-A12]”, for which the “sensitization” value is “not recognized”.
On the same count and under the same terms, in the case of RIGHLYIL [SEQ ID NO:6] it was “sensitized”.
